Experimental data published in ChEMBL document CHEMBL1201862, “PubChem BioAssay data set” (2004).
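How tested: cells in 96-well plates exposed to compound for 48 hours at five concentrations. Here, GI50 denotes the concentration required for 50% inhibition of growth.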 Activity calls are given as the source filed them. No stated cut-off is given here; in the data, active = GI50 up to about 1.1 µM and inactive = higher.

Legend:
Test in all cases: growth of human tumour cells (NCI), 48 h
M14 = test system: M14
ACHN = test system: ACHN
SK-MEL-28 = test system: SK-MEL-28
Hs-578T = test system: Hs-578T
Malme-3M = test system: Malme-3M
SK-OV-3 = test system: SK-OV-3
SF-268 = test system: SF-268
SF-295 = test system: SF-295
SK-MEL-2 = test system: SK-MEL-2
TK-10 = test system: TK-10
MDA-MB-231 = test system: MDA-MB-231
UO-31 = test system: UO-31
SNB-75 = test system: SNB-75
NCI-H226 = test system: NCI-H226
COLO 205 = test system: COLO 205
EKVX = test system: EKVX
RPMI-8226 = test system: RPMI-8226
HOP-92 = test system: HOP-92
IGROV-1 = test system: IGROV-1
MDA-N = test system: MDA-N
NCI/ADR-RES = test system: NCI/ADR-RES
HCC 2998 = test system: HCC 2998
OVCAR-5 = test system: OVCAR-5
MDA-MB-435 = test system: MDA-MB-435
SN12C = test system: SN12C
MCF7 = test system: MCF7
RXF 393 = test system: RXF 393
KM12 = test system: KM12
OVCAR-3 = test system: OVCAR-3
NCI-H522 = test system: NCI-H522
UACC-257 = test system: UACC-257
DU-145 = test system: DU-145
SW-620 = test system: SW-620
786-0 = test system: 786-0
SK-MEL-5 = test system: SK-MEL-5
MOLT-4 = test system: MOLT-4
NCI-H23 = test system: NCI-H23
SNB-19 = test system: SNB-19
CAKI-1 = test system: CAKI-1
OVCAR-4 = test system: OVCAR-4
OVCAR-8 = test system: OVCAR-8
U-251 = test system: U-251
A549 = test system: A549
HCT-15 = test system: HCT-15
T47D = test system: T47D
HCT-116 = test system: HCT-116
A498 = test system: A498
SF-539 = test system: SF-539
BT-549 = test system: BT-549
HOP-62 = test system: HOP-62
UACC-62 = test system: UACC-62
PC-3 = test system: PC-3
CCRF-CEM = test system: CCRF-CEM
HT-29 = test system: HT-29
SR = test system: SR
HL-60 = test system: HL-60
NCI-H460 = test system: NCI-H460
LOX IMVI = test system: LOX IMVI
K562 = test system: K562

Nc1nc(N)c2ncn(Cc3ccccc3)c2n1
GI50 (M14): > 100 µM (inactive)
GI50 (ACHN): > 100 µM (inactive)
GI50 (SK-MEL-28): > 100 µM (inactive)
GI50 (Hs-578T): > 100 µM (inactive)
GI50 (Malme-3M): > 100 µM (inactive)
GI50 (SK-OV-3): > 100 µM (inactive)
GI50 (SF-268): > 100 µM (inactive)
GI50 (SF-295): > 100 µM (inactive)
GI50 (SK-MEL-2): > 100 µM (inactive)
GI50 (TK-10): > 100 µM (inactive)
GI50 (MDA-MB-231): > 100 µM (inactive)
GI50 (UO-31): > 100 µM (inactive)
GI50 (SNB-75): 0.0295 µM (active)
GI50 (NCI-H226): > 100 µM (inactive)
GI50 (COLO 205): > 100 µM (inactive)
GI50 (EKVX): 21.8 µM (inactive)
GI50 (RPMI-8226): > 100 µM (inactive)
GI50 (HOP-92): > 100 µM (inactive)
GI50 (IGROV-1): > 100 µM (inactive)
GI50 (MDA-N): > 100 µM (inactive)
GI50 (NCI/ADR-RES): > 100 µM (inactive)
GI50 (HCC 2998): > 100 µM (inactive)
GI50 (OVCAR-5): > 100 µM (inactive)
GI50 (MDA-MB-435): > 100 µM (inactive)
GI50 (SN12C): > 100 µM (inactive)
GI50 (MCF7): > 100 µM (inactive)
GI50 (RXF 393): > 100 µM (inactive)
GI50 (KM12): > 100 µM (inactive)
GI50 (OVCAR-3): > 100 µM (inactive)
GI50 (NCI-H522): > 100 µM (inactive)
GI50 (UACC-257): > 100 µM (inactive)
GI50 (DU-145): > 100 µM (inactive)
GI50 (SW-620): > 100 µM (inactive)
GI50 (786-0): > 100 µM (inactive)
GI50 (SK-MEL-5): > 100 µM (inactive)
GI50 (MOLT-4): > 100 µM (inactive)
GI50 (NCI-H23): > 100 µM (inactive)
GI50 (SNB-19): > 100 µM (inactive)
GI50 (CAKI-1): > 100 µM (inactive)
GI50 (OVCAR-4): > 100 µM (inactive)
GI50 (OVCAR-8): > 100 µM (inactive)
GI50 (U-251): > 100 µM (inactive)
GI50 (A549): > 100 µM (inactive)
GI50 (HCT-15): > 100 µM
GI50 (T47D): > 100 µM (inactive)
GI50 (HCT-116): > 100 µM (inactive)
GI50 (A498): > 100 µM (inactive)
GI50 (SF-539): > 100 µM (inactive)
GI50 (BT-549): > 100 µM (inactive)
GI50 (HOP-62): > 100 µM (inactive)
GI50 (UACC-62): > 100 µM (inactive)
GI50 (PC-3): > 100 µM (inactive)
GI50 (CCRF-CEM): > 100 µM (inactive)
GI50 (HT-29): > 100 µM (inactive)

COc1ccc(N[S+]([O-])c2ccc(Cl)cc2)cc1 (configuration not stated)
GI50 (M14): 94 µM (inactive)
GI50 (ACHN): 91 µM (inactive)
GI50 (SK-MEL-28): > 100 µM (inactive)
GI50 (SR): 13.4 µM (inactive)
GI50 (Hs-578T): 23.1 µM (inactive)
GI50 (Malme-3M): 24.3 µM (inactive)
GI50 (SF-268): 4 µM (inactive)
GI50 (SF-295): 45.8 µM (inactive)
GI50 (SK-MEL-2): 24.5 µM (inactive)
GI50 (TK-10): > 100 µM (inactive)
GI50 (MDA-MB-231): 50.4 µM (inactive)
GI50 (UO-31): 14.6 µM (inactive)
GI50 (NCI-H226): 19.5 µM (inactive)
GI50 (HL-60): 38.5 µM (inactive)
GI50 (COLO 205): > 100 µM (inactive)
GI50 (EKVX): 55.2 µM (inactive)
GI50 (RPMI-8226): 39.4 µM (inactive)
GI50 (NCI-H460): 24.3 µM (inactive)
GI50 (IGROV-1): 10.5 µM (inactive)
GI50 (MDA-N): 28.3 µM (inactive)
GI50 (LOX IMVI): 31 µM (inactive)
GI50 (NCI/ADR-RES): 38.8 µM (inactive)
GI50 (HCC 2998): 30.7 µM (inactive)
GI50 (MDA-MB-435): 14.8 µM (inactive)
GI50 (SN12C): > 100 µM (inactive)
GI50 (MCF7): 32.6 µM (inactive)
GI50 (KM12): 7.31 µM (inactive)
GI50 (OVCAR-3): 90.4 µM (inactive)
GI50 (NCI-H522): 16.2 µM (inactive)
GI50 (UACC-257): 17.9 µM (inactive)
GI50 (DU-145): 43.5 µM (inactive)
GI50 (SW-620): 49.1 µM (inactive)
GI50 (786-0): 49.8 µM (inactive)
GI50 (SK-MEL-5): 28.4 µM (inactive)
GI50 (MOLT-4): 20.6 µM (inactive)
GI50 (NCI-H23): 50.5 µM (inactive)
GI50 (SNB-19): 93.1 µM (inactive)
GI50 (K562): 34.4 µM (inactive)
GI50 (OVCAR-4): > 100 µM (inactive)
GI50 (OVCAR-8): 73.3 µM (inactive)
GI50 (U-251): 11.8 µM (inactive)
GI50 (A549): 23.5 µM (inactive)
GI50 (HCT-15): 19.5 µM
GI50 (T47D): 10.1 µM (inactive)
GI50 (HCT-116): 14.5 µM (inactive)
GI50 (SF-539): 11.9 µM (inactive)
GI50 (BT-549): 0.248 µM (active)
GI50 (HOP-62): 61.7 µM (inactive)
GI50 (UACC-62): 8.43 µM (inactive)
GI50 (CCRF-CEM): 50.5 µM (inactive)
GI50 (HT-29): 37.7 µM (inactive)

CC(C)(C)OC(=O)N1[C@@H]2Cc3ccc(N)cc3[C@@]1(C)c1ccccc12
GI50 (M14): 24 µM (inactive)
GI50 (ACHN): 36.8 µM (inactive)
GI50 (Hs-578T): 36.6 µM (inactive)
GI50 (Malme-3M): 29.9 µM (inactive)
GI50 (SK-OV-3): 34 µM (inactive)
GI50 (SF-268): 37.3 µM (inactive)
GI50 (SF-295): 28.1 µM (inactive)
GI50 (SK-MEL-2): 20 µM (inactive)
GI50 (TK-10): 35.5 µM (inactive)
GI50 (MDA-MB-231): 27.7 µM (inactive)
GI50 (UO-31): 40.6 µM (inactive)
GI50 (HL-60): 20.1 µM (inactive)
GI50 (EKVX): 38.3 µM (inactive)
GI50 (RPMI-8226): 21.8 µM (inactive)
GI50 (HOP-92): 23.9 µM (inactive)
GI50 (NCI-H460): 21.2 µM (inactive)
GI50 (IGROV-1): 46.7 µM (inactive)
GI50 (MDA-N): 21.2 µM (inactive)
GI50 (LOX IMVI): 19.6 µM (inactive)
GI50 (NCI/ADR-RES): 22.4 µM (inactive)
GI50 (HCC 2998): 21.3 µM (inactive)
GI50 (OVCAR-5): 42.1 µM (inactive)
GI50 (MDA-MB-435): 16.8 µM (inactive)
GI50 (SN12C): 16.8 µM (inactive)
GI50 (MCF7): 34.1 µM (inactive)
GI50 (RXF 393): 15 µM (inactive)
GI50 (KM12): 33 µM (inactive)
GI50 (OVCAR-3): 20.8 µM (inactive)
GI50 (NCI-H522): 12.2 µM (inactive)
GI50 (UACC-257): 27.2 µM (inactive)
GI50 (DU-145): 30.3 µM (inactive)
GI50 (SW-620): 29.7 µM (inactive)
GI50 (786-0): 19.1 µM (inactive)
GI50 (SK-MEL-5): 0.9 µM (active)
GI50 (MOLT-4): 19 µM (inactive)
GI50 (NCI-H23): 19.3 µM (inactive)
GI50 (SNB-19): 44.1 µM (inactive)
GI50 (CAKI-1): 45.2 µM (inactive)
GI50 (K562): 24.8 µM (inactive)
GI50 (OVCAR-4): 29.8 µM (inactive)
GI50 (U-251): 17 µM (inactive)
GI50 (A549): 35.6 µM (inactive)
GI50 (HCT-15): 11.1 µM
GI50 (T47D): 17.7 µM (inactive)
GI50 (HCT-116): 18.7 µM (inactive)
GI50 (A498): 30.5 µM (inactive)
GI50 (BT-549): 18.7 µM (inactive)
GI50 (HOP-62): 35 µM (inactive)
GI50 (UACC-62): 20.6 µM (inactive)
GI50 (PC-3): 29.9 µM (inactive)
GI50 (CCRF-CEM): 25.8 µM (inactive)
GI50 (HT-29): 21.6 µM (inactive)
